The text below walks through data of patent US11180474B2 (BRISTOL-MYERS SQUIBB COMPANY, priority 2016, dated 2021).

Assay [1] concerns the target T1, human TLR7 (Homo sapiens, UniProt Q9NYK1).
T1 construct: host or cells: HEK-Blue cells
T1 sequence (Q9NYK1 27-1049): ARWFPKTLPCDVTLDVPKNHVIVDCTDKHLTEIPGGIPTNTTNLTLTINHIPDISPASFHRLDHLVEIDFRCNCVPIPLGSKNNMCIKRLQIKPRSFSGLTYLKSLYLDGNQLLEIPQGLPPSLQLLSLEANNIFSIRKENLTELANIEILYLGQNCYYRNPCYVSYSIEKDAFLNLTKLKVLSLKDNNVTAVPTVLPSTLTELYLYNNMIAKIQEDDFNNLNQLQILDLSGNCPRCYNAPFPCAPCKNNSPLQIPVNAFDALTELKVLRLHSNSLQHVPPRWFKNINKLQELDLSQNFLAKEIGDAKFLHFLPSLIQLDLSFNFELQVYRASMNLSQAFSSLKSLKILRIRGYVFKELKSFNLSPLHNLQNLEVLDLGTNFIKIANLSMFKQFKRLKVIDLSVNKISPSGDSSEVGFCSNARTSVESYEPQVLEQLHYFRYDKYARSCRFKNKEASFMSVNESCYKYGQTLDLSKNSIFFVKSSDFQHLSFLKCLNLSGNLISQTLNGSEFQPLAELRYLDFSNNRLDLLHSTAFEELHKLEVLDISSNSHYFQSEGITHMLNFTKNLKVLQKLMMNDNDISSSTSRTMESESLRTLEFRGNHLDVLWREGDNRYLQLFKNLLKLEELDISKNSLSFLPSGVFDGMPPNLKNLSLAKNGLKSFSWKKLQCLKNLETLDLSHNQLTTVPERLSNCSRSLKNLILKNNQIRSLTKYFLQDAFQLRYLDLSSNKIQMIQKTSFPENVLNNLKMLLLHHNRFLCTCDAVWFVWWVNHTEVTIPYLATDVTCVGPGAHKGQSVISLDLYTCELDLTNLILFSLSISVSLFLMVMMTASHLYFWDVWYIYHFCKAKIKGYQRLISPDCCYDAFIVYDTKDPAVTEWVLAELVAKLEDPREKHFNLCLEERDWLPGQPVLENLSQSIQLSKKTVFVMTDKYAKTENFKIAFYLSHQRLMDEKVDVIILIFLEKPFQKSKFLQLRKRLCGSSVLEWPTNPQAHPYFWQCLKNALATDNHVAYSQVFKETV
Nature of the assay: TLR7 inhibition reporter assay (HEK-Blue cells, SEAP reporter, gardiquimod stimulation). The class given is cell-based. Particulars: HEK-Blue cells overexpressing human TLR7, gardiquimod 7.5 μM. Summed up: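 22 h, 37° C, 5% CO2 incubation; compounds 0.05 nM-50 μM final; TLR7 cells 15000/well, TLR8 20,000/well. Readout: SEAP via HEK-Blue Detection medium. % inhibition = signal reduction versus agonist + DMSO wells, referenced to known inhibitor.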
In general terms: In a reporter assay the amount or activity of a reporter protein is the signal.

The target in assay [2] is T2, human TLR9 (Homo sapiens, UniProt Q9NR96).
T2 construct: host or cells: HEK-Blue cells
T2 sequence (Q9NR96 26-1032): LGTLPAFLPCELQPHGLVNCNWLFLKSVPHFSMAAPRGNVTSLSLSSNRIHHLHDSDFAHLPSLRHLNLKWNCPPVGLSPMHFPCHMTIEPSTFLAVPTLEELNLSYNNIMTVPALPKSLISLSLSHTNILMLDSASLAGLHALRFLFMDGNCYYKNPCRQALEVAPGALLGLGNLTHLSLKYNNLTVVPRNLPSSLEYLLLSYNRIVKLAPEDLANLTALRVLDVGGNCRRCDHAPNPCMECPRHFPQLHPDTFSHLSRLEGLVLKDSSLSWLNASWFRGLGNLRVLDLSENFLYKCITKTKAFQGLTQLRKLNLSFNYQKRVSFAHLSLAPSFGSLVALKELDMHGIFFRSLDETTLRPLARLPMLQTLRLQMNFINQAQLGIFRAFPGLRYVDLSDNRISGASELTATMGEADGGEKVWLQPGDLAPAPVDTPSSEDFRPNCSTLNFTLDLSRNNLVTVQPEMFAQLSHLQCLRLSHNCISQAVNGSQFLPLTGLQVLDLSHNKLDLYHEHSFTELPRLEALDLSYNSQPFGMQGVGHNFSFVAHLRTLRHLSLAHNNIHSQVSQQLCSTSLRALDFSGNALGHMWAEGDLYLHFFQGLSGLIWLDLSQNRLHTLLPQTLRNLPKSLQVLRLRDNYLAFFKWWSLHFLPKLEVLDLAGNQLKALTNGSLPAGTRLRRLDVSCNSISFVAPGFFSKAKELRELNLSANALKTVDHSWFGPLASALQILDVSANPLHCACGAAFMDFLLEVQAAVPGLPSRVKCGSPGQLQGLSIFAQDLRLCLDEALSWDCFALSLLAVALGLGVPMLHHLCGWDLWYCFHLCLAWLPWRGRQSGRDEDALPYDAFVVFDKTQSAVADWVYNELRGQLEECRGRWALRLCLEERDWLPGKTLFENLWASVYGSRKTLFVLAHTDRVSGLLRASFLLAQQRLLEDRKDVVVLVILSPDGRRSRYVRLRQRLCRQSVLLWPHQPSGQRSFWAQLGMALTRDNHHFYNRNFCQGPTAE
Briefly: TLR9 inhibition reporter assay (HEK-Blue cells, SEAP reporter, ODN2006 stimulation). The class given is cell-based. The conditions noted are these: HEK-Blue cells overexpressing human TLR9, ODN2006 5 nM. The method in brief: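 Compound treatment: 30 min, RT, 0.05 nM–50 μM final. Agonist: TLR7 gardiquimod 7.5 μM; TLR8 R848 15.9 μM; TLR9 ODN2006 5 nM. Incubation 22 h, 37 °C, 5% CO2. Readout SEAP, HEK-Blue Detection.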

As to `COc1ccc(-c2[nH]c3ccc(C4CCN(C5CCN(C6CCOCC6)CC5)CC4)cc3c2C)cc1OC` [Example 26, 2-(3,4-dimethoxyphenyl)-3-methyl-5-(1′-(tetrahydro-2H-pyran-4-yl)-[1,4′-bipiperidin]-4-yl)-1H-indole], the IC50 in assay [1] came to 0.348 µM; in assay [2] it was 0.318 µM.
Regarding `COc1ccc(-c2[nH]c3ccc(C4CCN(C5CCCNC5)CC4)cc3c2C)cc1OC` (centres unmarked) [Example 106, 5-([1,3′-bipiperidin]-4-yl)-2-(3,4-dimethoxyphenyl)-3-methyl-1H-indole], the IC50 in assay [1] stood at 0.905 µM; in assay [2] it was 0.307 µM.
In the case of `COc1ccc(-c2[nH]c3ccc(C4CCN(Cc5cccc(NS(C)(=O)=O)c5)CC4)cc3c2C(C)C)cc1OC` [Example 260, N-(3-((4-(2-(3,4-dimethoxyphenyl)-3-isopropyl-1H-indol-5-yl)piperidin-1-yl)methyl)phenyl)methanesulfonamide], the values for the IC50 in assay [1] and in assay [2] were 0.064 µM and 2.7 µM, respectively.
Take `CCc1c(-c2ccc(OC)c(OC)c2)[nH]c2ccc(C3CCN(C(=O)CNC45CC6CC(CC(O)(C6)C4)C5)CC3)cc12` [Example 163, 1-(4-(2-(3,4-dimethoxyphenyl)-3-ethyl-1H-indol-5-yl)piperidin-1-yl)-2-(((1r,3s,5R,7S)-3-hydroxyadamantan-1-yl)amino) ethan-1-one]: the IC50 came out at 0.28 µM in assay [1] and 2.17 µM in assay [2].
Consider `COc1ccc(-c2[nH]c3ccc(C4CCN(C5CCCN(CC(C)C)C5)CC4)cc3c2C)cc1OC` (centres unmarked) [Example 416, 2-(3,4-dimethoxyphenyl)-5-(1′-isobutyl-[1,3′-bipiperidin]-4-yl)-3-methyl-1H-indole], for which the IC50 in assay [1] came to 0.677 µM; in assay [2], 0.291 µM.
For `CCC(C)N1CCC(N2CCC(c3ccc4[nH]c(-c5ccc(OC)c(OC)c5)c(C)c4c3)CC2)CC1` (centres unmarked) [Example 71, 5-(1′-(sec-butyl)-[1,4′-bipiperidin]-4-yl)-2-(3,4-dimethoxyphenyl)-3-methyl-1H-indole], the IC50 stood at 0.537 µM in assay [1] and 0.097 µM in assay [2].
As for `COc1ccc(-c2[nH]c3ccc(C4CCN(C5CCN(CCCSC)CC5)CC4)cc3c2C)cc1OC` [Example 53, 2-(3,4-dimethoxyphenyl)-3-methyl-5-(1′-(3-(methylthio)propyl)-[1,4′-bipiperidin]-4-yl)-1H-indole], the IC50 was 0.188 µM in assay [1] and 0.116 µM in assay [2].
With `CCc1c(-c2ccc(OC)c(OC)c2)[nH]c2ccc(C3CCN(C(=O)CN4CCOCC4)CC3)cc12` [Example 167, 1-(4-(2-(3,4-dimethoxyphenyl)-3-ethyl-1H-indol-5-yl)piperidin-1-yl)-2-morpholinoethan-1-one], the figures for the IC50 in assay [1] and in assay [2] were 0.179 µM and 33.2 µM, respectively.
In the case of `COc1ccc(-c2[nH]c3ccc(C4CCN(C(C)c5ccccc5)CC4)cc3c2C)cc1OC` (centres unmarked) [Example 27, 2-(3,4-dimethoxyphenyl)-3-methyl-5-(1-(1-phenylethyl)piperidin-4-yl)-1H-indole], the IC50 in assay [1] came to 0.85 µM; in assay [2] it was 2.8 µM.
The like results for `COc1ccc(-c2[nH]c3ccc(C4CCN(Cc5csnn5)CC4)cc3c2C)cc1OC` [Example 41, 4-((4-(2-(3,4-dimethoxyphenyl)-3-methyl-1H-indol-5-yl)piperidin-1-yl)methyl)-1,2,3-thiadiazole] were, in that order, 2.34 µM and 3.84 µM.
Take `COc1ccc(-c2[nH]c3ccc(C4CCN(Cc5ccc(-n6cncn6)cc5)CC4)cc3c2C)cc1OC` [Example 34, 5-(1-(4-(1H-1,2,4-triazol-1-yl)benzyl)piperidin-4-yl)-2-(3,4-dimethoxyphenyl)-3-methyl-1H-indole]: the values for the IC50 in assay [1] and in assay [2] were 0.673 µM and 0.347 µM, respectively.
Consider `COc1ccc(-c2[nH]c3ccc(C4CCN(C(=O)CN5CCCCC5C[C@@H]5CCCN5C)CC4)cc3c2C(C)C)cc1OC` (stereo partly drawn) [Example 225, 1-(4-(2-(3,4-dimethoxyphenyl)-3-isopropyl-1H-indol-5-yl)piperidin-1-yl)-2-(2-(((S)-1-methylpyrrolidin-2-yl)methyl)piperidin-1-yl)ethan-1-one], for which the IC50 in assay [1] was determined as 0.445 µM; in assay [2], 3.23 µM.
On to `COc1ccc(-c2[nH]c3ccc(C4CCN(C5CCN(C6COC6)CC5)CC4)cc3c2C)cc1OC` [Example 83, 2-(3,4-dimethoxyphenyl)-3-methyl-5-(1′-(oxetan-3-yl)-[1,4′-bipiperidin]-4-yl)-1H-indole], for which the results for the IC50 in assay [1] and in assay [2] were 2.63 µM and 1.55 µM, respectively.
As for `COc1ccc(-c2[nH]c3ccc(C4CCN(Cc5ccc(-n6ccnc6)cc5)CC4)cc3c2C(C)C)cc1OC` [Example 263, 5-(1-(4-(1H-imidazol-1-yl)benzyl)piperidin-4-yl)-2-(3,4-dimethoxyphenyl)-3-isopropyl-1H-indole], the IC50 in assay [1] was determined as 0.082 µM; in assay [2] it was 0.79 µM.
`CCNCC(=O)N1CCC(c2ccc3[nH]c(-c4ccc(OC)c(OC)c4)c(C)c3c2)CC1` [Example 113, 1-(4-(2-(3,4-dimethoxyphenyl)-3-methyl-1H-indol-5-yl)piperidin-1-yl)-2-(ethylamino)ethan-1-one]: the values for the IC50 in assay [1] and in assay [2] were 0.371 µM and 0.885 µM, respectively.
`COc1ccc(-c2[nH]c3ccc(C4CCN(CCN(C)C5COC5)CC4)cc3c2C)cc1OC` [Example 109, N-(2-(4-(2-(3,4-dimethoxyphenyl)-3-methyl-1H-indol-5-yl)piperidin-1-yl)ethyl)-N-methyloxetan-3-amine]: the IC50 in assay [1] was ≥ 50 µM; in assay [2], 17 µM.
In the case of `COc1ccc(-c2[nH]c3ccc(C4CCN(C5COC5)CC4)cc3c2C)cc1OC` [Example 7, 2-(3,4-dimethoxyphenyl)-3-methyl-5-(1-(oxetan-3-yl)piperidin-4-yl)-1H-indole], the results for the IC50 in assay [1] and in assay [2] were 2.16 µM and 0.569 µM, respectively.
The like results for `CCc1c(-c2ccc(OC)c(OC)c2)[nH]c2ccc(C3CCN(C(=O)CNC(CO)CO)CC3)cc12` [Example 165, 2-((1,3-dihydroxypropan-2-yl)amino)-1-(4-(2-(3,4-dimethoxyphenyl)-3-ethyl-1H-indol-5-yl)piperidin-1-yl)ethan-1-one] were, in that order, 0.107 µM and 5.17 µM.
On to `CCc1c(-c2ccc(OC)c(OC)c2)[nH]c2ccc(C3CCN(C(=O)CN4CCCC(CO)C4)CC3)cc12` (centres unmarked) [Example 169, 1-(4-(2-(3,4-dimethoxyphenyl)-3-ethyl-1H-indol-5-yl)piperidin-1-yl)-2-(3-(hydroxymethyl)piperidin-1-yl)ethan-1-one], for which the IC50 in assay [1] stood at 0.144 µM; in assay [2], 2.1 µM.

A word on the IC50: it is the point on the concentration scale where inhibition reaches its midpoint. Low values mean greater potency in that assay, high ones weaker potency in that assay.
